Consider five compounds from ChEMBL document CHEMBL5038618, “Discovery of PT-65 as a highly potent and selective Proteolysis-targeting chimera degrader of GSK3 for treating Alzheimer's disease” (Eur J Med Chem, 2021).

For orientation: DC50 means the midpoint of the concentration-degradation curve.

The target in assay [1] is T1, Protein cereblon/Glycogen synthase kinase-3 alpha (Homo sapiens, UniProt P49840+Q96SW2). Briefly: Protac activity at CRBN/GSK3alpha in human SH-SY5Y cells assessed as induction of GSK3alpha degradation at 0.1 uM measured after 24 hrs. Format: cell-based.
Target sequence in this assay (P49840 2-483 limits assumed): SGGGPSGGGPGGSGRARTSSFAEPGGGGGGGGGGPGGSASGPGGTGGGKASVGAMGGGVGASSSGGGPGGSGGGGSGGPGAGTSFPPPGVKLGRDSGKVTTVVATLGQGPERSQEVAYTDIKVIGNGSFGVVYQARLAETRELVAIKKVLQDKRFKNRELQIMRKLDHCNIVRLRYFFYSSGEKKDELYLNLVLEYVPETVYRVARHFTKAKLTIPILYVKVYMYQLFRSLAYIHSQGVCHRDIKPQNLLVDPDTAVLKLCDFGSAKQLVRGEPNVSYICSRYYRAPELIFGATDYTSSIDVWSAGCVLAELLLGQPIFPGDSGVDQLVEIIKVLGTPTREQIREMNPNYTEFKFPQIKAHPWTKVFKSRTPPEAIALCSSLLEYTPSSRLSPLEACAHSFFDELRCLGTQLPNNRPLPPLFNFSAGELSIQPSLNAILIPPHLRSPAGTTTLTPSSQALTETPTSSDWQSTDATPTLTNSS
Target sequence in this assay (Q96SW2 whole entry partner): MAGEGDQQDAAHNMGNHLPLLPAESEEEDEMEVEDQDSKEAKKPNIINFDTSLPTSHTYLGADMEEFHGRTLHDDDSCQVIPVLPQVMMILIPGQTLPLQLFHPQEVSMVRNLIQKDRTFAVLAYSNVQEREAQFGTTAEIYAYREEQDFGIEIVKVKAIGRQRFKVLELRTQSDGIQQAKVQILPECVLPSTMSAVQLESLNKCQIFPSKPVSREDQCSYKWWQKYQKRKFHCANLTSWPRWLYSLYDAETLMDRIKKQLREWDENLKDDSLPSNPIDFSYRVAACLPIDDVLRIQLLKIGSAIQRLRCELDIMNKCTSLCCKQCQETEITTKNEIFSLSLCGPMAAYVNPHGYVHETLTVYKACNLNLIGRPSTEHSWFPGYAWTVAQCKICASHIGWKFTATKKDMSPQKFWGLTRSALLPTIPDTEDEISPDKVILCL
Assay [2] has as its target T2, Protein cereblon/Glycogen synthase kinase-3 beta (Homo sapiens, UniProt P49841+Q96SW2). Briefly: Protac activity at CRBN/GSK3beta in human SH-SY5Y cells assessed as induction of GSK3beta degradation at 1 uM measured after 24 hrs. It counts as cell-based.
Target sequence in this assay (P49841 whole entry, looked up): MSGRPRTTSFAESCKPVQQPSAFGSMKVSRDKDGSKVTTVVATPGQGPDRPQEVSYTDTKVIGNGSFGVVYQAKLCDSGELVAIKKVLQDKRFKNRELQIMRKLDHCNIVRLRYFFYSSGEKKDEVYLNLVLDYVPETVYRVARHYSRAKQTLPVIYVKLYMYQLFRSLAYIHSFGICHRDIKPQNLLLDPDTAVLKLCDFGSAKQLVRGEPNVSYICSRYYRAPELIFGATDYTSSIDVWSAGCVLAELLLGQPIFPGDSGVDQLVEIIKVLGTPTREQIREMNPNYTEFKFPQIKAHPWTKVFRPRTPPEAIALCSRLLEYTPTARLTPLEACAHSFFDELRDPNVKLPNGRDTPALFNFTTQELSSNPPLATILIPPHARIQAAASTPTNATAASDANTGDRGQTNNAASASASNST
Target sequence in this assay (Q96SW2 whole entry, looked up): as the sequence (Q96SW2 whole entry partner) above
Assay [3] has as its target T2, Protein cereblon/Glycogen synthase kinase-3 beta. Briefly: Protac activity at CRBN/GSK3beta in human SH-SY5Y cells assessed as induction of GSK3beta degradation measured after 24 hrs. Format: cell-based.
Target sequence in this assay (P49841 whole entry): as the sequence (P49841 whole entry, looked up) above
Target sequence in this assay (Q96SW2 whole entry): as the sequence (Q96SW2 whole entry partner) above
The target is the same in assay [4]. The assay is described as follows: Protac activity at CRBN/GSK3beta in human SH-SY5Y cells assessed as induction of GSK3beta degradation at 0.1 uM measured after 24 hrs. Format: cell-based.
Target sequence in this assay (P49841 whole entry, looked up): as the sequence (P49841 whole entry, looked up) above
Target sequence in this assay (Q96SW2 whole entry, looked up): as the sequence (Q96SW2 whole entry partner) above
Assay [5] addresses T1, Protein cereblon/Glycogen synthase kinase-3 alpha. Briefly: Protac activity at CRBN/GSK3alpha in human SH-SY5Y cells assessed as induction of GSK3alpha protein degradation at 1 uM measured after 24 hrs. It counts as cell-based.
Target sequence in this assay (P49840 2-483 limits assumed): as the sequence (P49840 2-483 limits assumed) above
Target sequence in this assay (Q96SW2 whole entry partner): as the sequence (Q96SW2 whole entry partner) above
Assay [6] has the same target. Briefly: Protac activity at CRBN/GSK3alpha in human SH-SY5Y cells assessed as induction of GSK3alpha protein degradation measured after 24 hrs. It counts as cell-based.
Target sequence in this assay (P49840 whole entry): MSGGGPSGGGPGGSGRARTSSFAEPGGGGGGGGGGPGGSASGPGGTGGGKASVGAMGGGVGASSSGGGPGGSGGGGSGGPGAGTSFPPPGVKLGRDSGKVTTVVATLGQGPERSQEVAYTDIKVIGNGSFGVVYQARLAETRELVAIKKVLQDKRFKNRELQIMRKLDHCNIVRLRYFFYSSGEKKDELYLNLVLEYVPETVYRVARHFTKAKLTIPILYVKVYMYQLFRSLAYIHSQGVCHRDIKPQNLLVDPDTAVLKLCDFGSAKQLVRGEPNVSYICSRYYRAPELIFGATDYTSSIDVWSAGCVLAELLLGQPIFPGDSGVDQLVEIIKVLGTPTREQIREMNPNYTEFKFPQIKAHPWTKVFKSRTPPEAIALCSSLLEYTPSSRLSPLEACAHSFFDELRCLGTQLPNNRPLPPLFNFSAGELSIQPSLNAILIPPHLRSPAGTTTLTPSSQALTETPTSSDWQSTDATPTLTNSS
Target sequence in this assay (Q96SW2 whole entry): as the sequence (Q96SW2 whole entry partner) above
For assay [7] the target is unchanged. Briefly: Protac activity at CRBN/GSK3alpha in human SH-SY5Y cells assessed as induction of GSK3alpha protein degradation at 10 uM measured after 24 hrs. Format: cell-based.
Target sequence in this assay (P49840 2-483 limits assumed): as the sequence (P49840 2-483 limits assumed) above
Target sequence in this assay (Q96SW2 whole entry partner): as the sequence (Q96SW2 whole entry partner) above
In assay [8] the target is T2, Protein cereblon/Glycogen synthase kinase-3 beta. Briefly: Protac activity at CRBN/GSK3beta in human SH-SY5Y cells assessed as induction of GSK3beta degradation at 10 uM measured after 24 hrs. It counts as cell-based.
Target sequence in this assay (P49841 whole entry, looked up): as the sequence (P49841 whole entry, looked up) above
Target sequence in this assay (Q96SW2 whole entry, looked up): as the sequence (Q96SW2 whole entry partner) above
The subject of assay [9] is SH-SY5Y. Briefly: Induction of apoptosis in human SH-SY5Y cells assessed as late apoptotic cells at 10 uM preincubated for 2 hrs followed by coincubation with Abeta42 and measured after 72 hrs by Annexin V-FITC/propidium iodide staining based flow cytometry (Rvb=3.5%). It counts as functional. Conditions: time 74 hrs.
In assay [10] the test system is SH-SY5Y. The assay is described as follows: Induction of apoptosis in human SH-SY5Y cells assessed as live cells at 10 uM preincubated for 2 hrs followed by coincubation with Abeta42 and measured after 72 hrs by Annexin V-FITC/propidium iodide staining based flow cytometry (Rvb=94.8%). It counts as functional. Conditions: time 74 hrs. In general terms: A flow cytometer gives signals particle by particle.

For assay [11], the system named is SH-SY5Y. Briefly: Induction of apoptosis in human SH-SY5Y cells assessed as early apoptotic cells at 10 uM preincubated for 2 hrs followed by coincubation with Abeta42 and measured after 72 hrs by Annexin V-FITC/propidium iodide staining based flow cytometry (Rvb=1%). Format: functional. Conditions: time 74 hrs.
In assay [12] the test system is SH-SY5Y. The assay is described as follows: Induction of apoptosis in human SH-SY5Y cells assessed as necrotic cells at 10 uM preincubated for 2 hrs followed by coincubation with Abeta42 and measured after 72 hrs by Annexin V-FITC/propidium iodide staining based flow cytometry (Rvb=0.7%). It counts as functional. Conditions: time 74 hrs.

For `Nc1ncc(-c2ccc(S(=O)(=O)N3CCN(CCCCc4cn(CCOCCOCCOCCOCCNc5cccc6c5C(=O)N(C5CCC(=O)NC5=O)C6=O)nn4)CC3)cc2)nc1C(=O)Nc1cccnc1` (stereo not drawn), the Activity amounted to 68.5% in [1], 84.4% in assay [2], 63.7% in assay [4] and 90.3% in assay [5]. Moreover, the values for the DC50 in assay [3] and in assay [6] were 110 nM and 38.2 nM, respectively.
`Nc1ncc(-c2ccc(S(=O)(=O)N3CCN(Cc4cn(CCOCCOCCOCCOCCOCCNc5cccc6c5C(=O)N(C5CCC(=O)NC5=O)C6=O)nn4)CC3)cc2)nc1C(=O)Nc1cccnc1` (stereo not drawn): the Activity was 47.4% in assay [1]; 63.8% in [2]; 65.9% in assay [7]; 74.5% in assay [8]; 28.9% in assay [4]; 77.2% in [5].
In the case of `Nc1ncc(-c2ccc(S(=O)(=O)N3CCN(Cc4cn(CCOCCOCCOCCNc5cccc6c5C(=O)N(C5CCC(=O)NC5=O)C6=O)nn4)CC3)cc2)nc1C(=O)Nc1cccnc1` (stereo not drawn), the Activity in assay [1] amounted to 45.4%; in [2], 46.6%; in assay [7], 86.4%; in [8], 80.2%; in [4], 29.9%; in [5], 75.6%.
As to `Nc1ncc(-c2ccc(S(=O)(=O)N3CCN(CCCCc4cn(CCOCCOCCOCCOCCOCCOCCNc5cccc6c5C(=O)N(C5CCC(=O)NC5=O)C6=O)nn4)CC3)cc2)nc1C(=O)Nc1cccnc1` (stereo not drawn), the Activity in assay [1] came to 71.9%; in assay [2] it was 87%; in assay [4], 56.7%; in assay [5], 91.4%. Also, the DC50 in assay [3] was determined as 66.6 nM; in assay [6], 40.4 nM.
Regarding `Cn1sc(=O)n(Cc2ccccc2)c1=O`, the Activity in the assay with SH-SY5Y [9] was determined as 5.3%; in the assay on SH-SY5Y [10], 92.4%; with SH-SY5Y [11], 1.3%; in the assay with SH-SY5Y [12], 1.1%.
